Test results published in ChEMBL document CHEMBL1137128, “Quantitative structure-activity relationship analysis of a series of 2,3-diaryl benzopyran analogues as novel selective cyclooxygenase-2 inhibitors” (Bioorg Med Chem Lett, 2004).

Biological target: T1, Prostaglandin G/H synthase 2 (Mus musculus, UniProt Q05769)
T1 sequence (Q05769 whole entry): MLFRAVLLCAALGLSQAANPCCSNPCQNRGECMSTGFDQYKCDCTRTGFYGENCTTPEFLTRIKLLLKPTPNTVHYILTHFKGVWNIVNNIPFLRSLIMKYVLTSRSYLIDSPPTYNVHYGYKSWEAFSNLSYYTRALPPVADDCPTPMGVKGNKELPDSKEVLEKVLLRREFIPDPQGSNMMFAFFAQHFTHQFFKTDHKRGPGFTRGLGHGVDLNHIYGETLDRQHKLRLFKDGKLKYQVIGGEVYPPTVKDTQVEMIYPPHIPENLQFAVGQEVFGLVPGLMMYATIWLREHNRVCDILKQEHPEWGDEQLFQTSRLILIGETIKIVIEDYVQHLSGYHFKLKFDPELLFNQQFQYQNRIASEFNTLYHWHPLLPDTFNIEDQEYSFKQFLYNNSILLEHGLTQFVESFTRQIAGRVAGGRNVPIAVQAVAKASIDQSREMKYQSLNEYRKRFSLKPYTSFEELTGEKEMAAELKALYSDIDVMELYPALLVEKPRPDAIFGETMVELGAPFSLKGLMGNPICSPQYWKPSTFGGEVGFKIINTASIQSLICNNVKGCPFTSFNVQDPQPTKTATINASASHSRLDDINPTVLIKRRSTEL
Test: In vitro inhibitory activity against Prostaglandin G/H synthase 2 from mouse peritoneal macrophages

## CS(=O)(=O)c1ccc(-c2oc3ccccc3c(=O)c2-c2cc3ccccc3s2)cc1
  IC50: 331 nM
